The values that follow come from patent US20040229936A1, “Treatment of hepatitis C virus infection with sesquiterpene lactones” (priority 2003, published 2004).

Assay [1] has as its system HCV RNA replication in Huh-7 cells containing HCV sub-genomic replicons (Ava.5). Description: Inhibition of HCV RNA replication (replicon cells, RT and Q-PCR, normalised to GADPH). Conditions: for EC50: Hepatitis C virus, 24 h, read-out: EC50 value (effective concentration at which HCV RNA replication was inhibited by 50%).
Protocol: Huh-7 cells containing HCV sub-genomic replicons (Ava.5) were maintained in DMEM supplemented with 10% heat-inactivated FCS in a humidified atmosphere containing 5% of CO2. The medium also contained 1 mg/mL G418 (an aminoglycosidic antibiotic agent obtained from Promega, WI) as a selective pressure for the maintenance of HCV replicon's RNA replication. […] Cells were treated with sesquiterpene lactones and control compounds at various concentrations. Then, cells were harvested after 24 hr of the treatment. Subsequently, total cellular RNA's were extracted and quantified as follows.
Total RNA of cells was extracted using RNeasy Mini Kit (QIAGEN). The concentration of total RNA was measured by absorption at 260 nm. […] RNA was added with RNase-free ddH2O to a final volume of 10.5 μL and denatured for 10 min at 65° C. Reverse transcription (RT) reactions were carried out at 42° C. for 1 hr using Expand-RT (Roche Biochemicals, Mannheim, Germany) in a total volume of 20 μL containing a previously denatured primer-RNA mixture, 1 mM each of deoxynucleotide triphosphates (dNTPs), 50 units reverse transcriptase, and 20 units RNase inhibitor (Promega, Madison, Wis.).
Quantitative PCR (Q-PCR) was carried out by LightCycler-DNA Master using SYBR Green 1 for real-time detection of double-stranded DNA (dsDNA) (Roche Diagnostics GmbH, Mannheim, Germany). The intensity of fluorescence was recorded versus PCR cycle numbers and the relative amounts of HCV RNA were calculated corresponding to the standard curve. The standard curve was derived from five serial dilutions of reference DNA, the corresponding cDNA of HCV RNA, under criteria recommended by the supplier.
The relative copy numbers HCV RNA and a house-keeping gene, glyceraldehyde-3-phosphate dehydrogenase (GADPH), were determined by Q-PCR utilizing the following primer sets:
PCR was performed as followed: (i) denaturing conditions: 95° C., 60 sec; (ii) amplification conditions: ramp to 95° C., 0 sec; 64° C., 10 sec; 72° C., 10 sec. The specificity of an amplification reaction was determined by performing a melting curve analysis with a temperature range from 65° C. to 95° C.
HCV RNA copy numbers were divided by their corresponding GADPH copy numbers in the same sample for normalization. Effect of sesquiterpene lactones on HCV RNA replication was represented by “relative copy number,” which was obtained by comparing HCV RNA copy numbers with sesquiterpene lactones treatment to HCV RNA copy numbers without sesquiterpene lactones treatment. The latter was designated as 100%. All measurements were performed in triplicates to reach statistical significance.
Assay [2] relates to Huh-7 cells containing HCV sub-genomic replicons (Ava.5). As to the kind of experiment: Inhibition of cell growth (MTS cell viability / cytotoxicity assay). The conditions noted are these: Hepatitis C virus, read-out: IC50 value (concentration at which cell growth was inhibited by 50%).
Protocol: Huh-7 cells containing HCV sub-genomic replicons (Ava.5) were provided by Apath, LLC. […] Cells were maintained in Dulbecco's modified Eagle's medium (DMEM) supplemented with 10% fetal calf serum (FCS) in a humidified atmosphere containing 5% of CO2.
MTS and PMS, both in powder form, were purchased from Sigma or Promega. MTS was dissolved in PBS (2 mg/mL) and PMS (0.38 mg/mL) was dissolved in ddH2O as stock solutions. […] Prior to the assay, a 2 mL MTS/PMS solution containing MTS and PMS (20:1) was added to the cells with 8 mL of phenol red-free DMEM. The cell culture medium was then aspirated off, washed with PBS, and 100 μL of the MTS/PMS mixture was added into each well. After incubation at room temperature for 2 hr, optical densities of each sample were measured at OD490 with a 96-well microtiter plate reader. Data were obtained with six repeats for each treatment.

On to IFNα, for which the “inhibition of HCV RNA replication” value in assay [1] (50 IU/1 mL of IFNα alone) turned out to be 25%; in assay [1] (100 IU/mL of IFNα alone), 40%.
As to `CC1=CCCC2(C)OC2C2OC(=O)C(CN3CCCCCC3)C2CC1` (centres unmarked) [Compound 48, 12-Azepan-1-ylmethyl-4,8-dimethyl-3,14-dioxa-tricyclo[9.3.0.02,4]tetradec-7-en-13-one], in assay [1], the EC50 is at most 3 µM.
Still for that read-out and setting: the result for `CC1=CCCC2(C)OC2C2OC(=O)C(CN3CCOCC3)C2CC1` (centres unmarked) [Compound 49, 4,8-Dimethyl-12-morpholin-4-ylmethyl-3,14-dioxa-tricyclo[9.3.0.02,4]tetradec-7-en-13-one] reads at most 6 µM; that for `CC1=CCCC2(C)OC2C2OC(=O)C(CN(C)C)C2CC1` (centres unmarked) [Compound 44, 12-Dimethylaminomethyl-4,8-dimethyl-3,14-dioxa-tricyclo[9.3.0.02,4]tetradec-7-en-13-one], at most 3 µM; that for `CC1=CCCC2(C)OC2C2OC(=O)C(CN3CCCC3)C2CC1` (centres unmarked) [Compound 46, 4,8-Dimethyl-12-pyrrolidin-1-ylmethyl-3,14-dioxa-tricyclo[9.3.0.02,4]tetradec-7-en-13-one], at most 3 µM.
In the case of `CC1=CCCC2(C)OC2C2OC(=O)C(CN3CCCC3C(=O)O)C2CC1` (centres unmarked) [Compound 50, 1-(4,8-Dimethyl-13-oxo-3,14-dioxa-tricyclo[9.3.0.02,4]tetradec-7-en-12-ylmethyl)-pyrrolidine-2-carboxylic acid], in assay [2], the IC50 worked out at 8.1 µM. Also, in assay [1], the EC50 was at most 3 µM.
On to `CCN(CC)CC1C(=O)OC2C1CCC(C)=CCCC1(C)OC21` (centres unmarked) [Compound 45, 12-Diethylaminomethyl-4,8-dimethyl-3,14-dioxa-tricyclo[9.3.0.02,4]tetradec-7-en-13-one], for which the EC50 in assay [1] was at most 3 µM.
With `CC1=CCCC2(C)OC2C2OC(=O)C(CN3CCCCC3)C2CC1` (centres unmarked) [Compound 47, 4,8-Dimethyl-12-piperidin-1-ylmethyl-3,14-dioxa-tricyclo[9.3.0.02,4]tetradec-7-en-13-one], the EC50 in assay [1] is at most 3 µM.
With `CC1=CCCC2(C)OC2C2OC(=O)C(CSCC(N)C(=O)O)C2CC1` (centres unmarked) [Compound 53, 2-Amino-3-(4,8-dimethyl-13-oxo-3,14-dioxa-tricyclo[9.3.0.02,4]tetradec-7-en-12-ylmethylsulfanyl)-propionic acid], the EC50 in assay [1] was at most 6 µM.
